Paper PMC9465178, “Cinnamaldehyde derivatives act as antimicrobial agents against Acinetobacter baumannii through the inhibition of cell division” (Frontiers in Microbiology, 2022)
Converted amounts (≈) assume the structure as drawn.

Key:
[1] = system: Enterobacter aerogenes ATCC 13408; test: Antibacterial activity (MIC), microbroth dilution; format: cell-based; settings: Klebsiella aerogenes, ATCC13408, read-out: Antibacterial activity (MIC)
Method: (§1) Reference bacterial strains were obtained from the American Type Culture Collection (ATCC). Vancomycin resistant Enterococcus faecium (VRE 734, wastewater isolate from the Venter Laboratory Collection) was isolated on Bile Esculin agar (Oxoid, Australia) containing 6 μg/mL vancomycin and identified using MALDI-TOF mass spectrometry (Bruker, Preston, Victoria, Australia, Australian Center for Antimicrobial Resistance Ecology). The Pseudomonas aeruginosa WT PAO1 and Escherichia coli with deletions of both acrA and acrB genes encoding drug efflux pumps were obtained from the Venter laboratory stock ([Welch et al., 2010]). The protocol for microbial growth was adopted from the European Committee on Antimicrobial Susceptibility Testing (EUCAST) ([European Committee for Antimicrobial Susceptibility Testing, 2016]).
(§2) Non-fastidious bacteria and clinical isolates were maintained in Mueller Hinton (MH) broth (Acumedia, United Kingdom) supplemented with 15% (v/v) glycerol (Chem-Supply, Australia), cultured on Mueller Hinton (MH) agar (Acumedia, United Kingdom) plated and incubated at 37°C. Fastidious bacteria were maintained in Brain Heart Infusion (BHI) broth (Acumedia, United Kingdom) supplemented with 15% (v/v) glycerol at −80°C. The fastidious bacteria were cultured on MH agar plates supplemented with 5% (v/v) lysed horse blood and 3% (v/v) fetal bovine serum and incubated at 30°C in the presence of 5% CO2. Drug susceptibility assays were carried out with the non-fastidious cultures grown in cation-adjusted Mueller Hinton (CaMH) broth (Becton Dickinson, France). Streptococcus pyogenes was grown in CaMH broth supplemented with 5% (v/v) lysed horse blood and 3% (v/v) fetal bovine serum whereas Enterococcus faecium was grown in BHI broth.
(§3) The minimum inhibitory concentrations (MICs) for all six compounds were determined using the microbroth dilution protocol as per EUCAST with an inoculum of approximately […] in an exponential growth phase ([European Committee for Antimicrobial Susceptibility Testing, 2016]). Bacterial suspension, 100 μL/well, was added to 100 μL/well of drug dilutions, then incubated for 18 h at 37°C. Fastidious bacterial suspensions were instead incubated at 30°C in the presence of 5% CO2. Bacterial growth was assessed by measuring the change in A600 nm between time 0 and 18 h (Cytation5® Cell Imaging Multi-Mode Reader, Bio-Tek®). Levofloxacin was used as the positive control. Assays were completed in duplicate in at least three independent experiments.

[2] = system: Escherichia coli ATCC 35218; test: Antibacterial activity (MIC), microbroth dilution; format: cell-based; settings: Escherichia coli, ATCC35218, read-out: Antibacterial activity (MIC)
Method: as §1, §2, §3

[3] = system: Escherichia coli WT BW 25113; test: Antibacterial activity (MIC), microbroth dilution; format: cell-based; settings: Escherichia coli, WTBW25113, read-out: Antibacterial activity (MIC)
Method: as §1, §2, §3

[4] = system: Klebsiella pneumoniae ATCC 13883; test: Antibacterial activity (MIC), microbroth dilution; format: cell-based; settings: Klebsiella pneumoniae, ATCC13883, read-out: Antibacterial activity (MIC)
Method: as §1, §2, §3

[5] = system: Klebsiella pneumoniae ATCC 33495; test: Antibacterial activity (MIC), microbroth dilution; format: cell-based; settings: Klebsiella pneumoniae, ATCC33495, read-out: Antibacterial activity (MIC)
Method: as §1, §2, §3

[6] = system: Klebsiella pneumoniae ATCC 4352; test: Antibacterial activity (MIC), microbroth dilution; format: cell-based; settings: Klebsiella pneumoniae, ATCC4352, read-out: Antibacterial activity (MIC)
Method: as §1, §2, §3

[7] = system: Pseudomonas aeruginosa ATCC 27853; test: Antibacterial activity (MIC), microbroth dilution; format: cell-based; settings: Pseudomonas aeruginosa, ATCC27853, read-out: Antibacterial activity (MIC)
Method: as §1, §2, §3

[8] = system: Pseudomonas aeruginosa WT PAO1; test: Antibacterial activity (MIC), microbroth dilution; format: cell-based; settings: Pseudomonas aeruginosa, PAO1, read-out: Antibacterial activity (MIC)
Method: as §1, §2, §3

[9] = system: Streptococcus pneumoniae (type 3, mucoid strain) ATCC 6303; test: Antibacterial activity (MIC), microbroth dilution; format: cell-based; settings: Streptococcus pneumoniae, ATCC6303, read-out: Antibacterial activity (MIC)
Method: as §1, §2, §3

[10] = system: Streptococcus pyogenes ATCC 10389; test: Antibacterial activity (MIC), microbroth dilution; format: cell-based; settings: Streptococcus pyogenes, ATCC10389, read-out: Antibacterial activity (MIC)
Method: as §1, §2, §3

Caenorhabditis elegans = test: Nematode toxicity (survival); format: in vivo; settings: 1 × and 2 × MIC, up to 72 h, 25°C
Method: Protocols for growing, harvesting, and synchronizing C. elegans have been previously described ([Porta-de-la-Riva et al., 2012]; [Chai et al., 2020]) and were performed with the following modifications. The nematodes were treated with LXC compounds 1 to 6 at 1 × and 2 × MIC with at least 3 replicates using a final DMSO concentration of 2% (v/v). The plate was incubated at 25°C and the number of live vs dead nematodes was enumerated every 24 h for 72 h. […] The percentage of living nematodes at each time point across 72 h was calculated to give the percentage of survival.
FIGURE 10 The LXC compounds (apart from compound 5) were not cytotoxic to C. elegans nematodes. (A–F) C. elegans nematodes were cultured on nematode growth media agar plate and harvested in optimized growth media, with E. coli as its primary source of nutrient. […] The nematodes were counted under a light microscope at 400× magnification and the live nematodes at 72 h was indicated as a fraction of the starting number of nematodes (percentage survival). The results are presented in mean percentage of survival ± SEM. Statistical analysis was performed using two-way ANOVA and the asterisks (*) represent statistical significance: LXC 41 (5) at time 72 h (*p < 0.05).

| Structure (SMILES) | MIC [1] [mg/L] | MIC [2] [mg/L] | MIC [3] [mg/L] | MIC [4] [mg/L] | MIC [5] [mg/L] | MIC [6] [mg/L] | MIC [7] [mg/L] | MIC [8] [mg/L] | MIC [9] [mg/L] | MIC [10] [mg/L] | Toxicity toward C. elegans (survival) (Caenorhabditis elegans) |
| --- | --- | --- | --- | --- | --- | --- | --- | --- | --- | --- | --- |
| Cc1nc2ccccc2n1C(=O)/C=C/c1ccc(Cl)cc1 [Compound 3] | > 256 | > 256 | > 256 | > 256 | > 256 | > 256 | > 256 | > 256 | 256 (≈ 863 µM) | > 256 | do not have in vivo toxicity in this model at 2 × MICs for up to 72 h |
| Cc1nc2ccccc2n1C(=O)/C=C/c1ccc(Br)cc1 [Compound 4] | > 256 | > 256 | > 256 | > 256 | > 256 | > 256 | 256 (≈ 750 µM) | > 256 | 256 (≈ 750 µM) | > 256 |  |
| Cc1nc2ccccc2n1C(=O)/C=C/c1ccc(F)cc1 [Compound 2] | > 256 | > 256 | > 256 | > 256 | > 256 | > 256 | > 256 | 256 (≈ 913 µM) | 256 (≈ 913 µM) | > 256 | do not have in vivo toxicity in this model at 2 × MICs for up to 72 h |
| Cc1nc2ccccc2n1C(=O)/C=C/c1ccc(Cl)cc1Cl [Compound 6] | > 256 | > 256 | > 256 | > 256 | > 256 | > 256 | > 256 | 256 (≈ 773 µM) | 256 (≈ 773 µM) | > 256 | devoid of hemolytic activity and cytotoxicity against mammalian cells in vitro, as well as adverse activity in a Caenorhabditis elegans nematode model |
| Cc1nc2ccccc2n1C(=O)/C=C/c1ccccc1 [Compound 1] | > 256 | > 256 | > 256 | > 256 | > 256 | > 256 | > 256 | 256 (≈ 976 µM) | 256 (≈ 976 µM) | > 256 | do not have in vivo toxicity in this model at 2 × MICs for up to 72 h |
| COc1ccc(/C=C/C(=O)n2c(C)nc3ccccc32)cc1OC [Compound 5] | > 256 | > 256 | > 256 | > 256 | > 256 | > 256 | > 256 | > 256 | 256 (≈ 794 µM) | > 256 | significant toxicity (p < 0.05) but only after 72 h treatment |
